Measurements as given in patent US20120141561A1, “NANOPARTICULATE CANDESARTAN CILEXITIL COMPOSITIONS, PROCESS FOR THE PREPARATION THEREOF AND PHARMACEUTICAL COMPOSITIONS CONTAINING THEM” (priority 2009, published 2012).
Each block holds one compound with its values, some of them ahead of it.

What was measured:
[1] = rat, in vivo, po, 10 mg/kg
Description: In Vivo Pharmacokinetic Tests Male Sprague-Dawley Rats in Fasted Condition
Comparative In Vivo Pharmacokinetic Tests in Male Sprague-Dawley Rats in Fasted Condition
Both test substances were administered via gastric tube in a dosing volume of 5 ml/kg. The vehicle of the test items was sterile 0.9% NaCl solution and the suspension was kept homogenous by continuous stirring during treatment in order to minimize the error resulting from the sedimentation.
Male Wistar rats (purchased from Laboratory Animal Center, University of Szeged) were maintained on a standard pellet rodent diet (Bioplan Ltd, Isaszeg, Hungary) under temperature and light-controlled conditions with tap water available ad libitum. The acclimatization period was at least 4 days. […] All animals were fasting for 16 hours before oral treatment. […] Water was available immediately after treatment for all animals. […] Serum samples were prepared by centrifugation (7000 rpm, 10 min, 4° C.) of the clotted blood within 60 minutes and were stored at −20° C. till analysis.
An aliquot of 200 μl serum was combined with 20 μl of internal standard working solution and 1.2 ml methanol for protein precipitation. The mixture was vortexed for 1 min and centrifuged at 12000 rpm for 10 min at 4° C. The supernatants were evaporated to dryness under a stream of nitrogen at 40° C. and reconstituted with 200 μl of water-methanol (50:50 v/v) and 20 μl was injected into the HPLC system.
Statistical analysis and graph drawing were carried out be GraphPad Prism 4.0 (GraphPad Software, San Diego, USA).

[2] = monotherapy, 108 of 3260 patients; cited from earlier work
[3] = Comparative dissolution test in distillate water; format: physicochemical; settings: 5 mg in 10 mL distillate water
Description: The suspension was stirred for 1, 5, 10, 15, 20, and 30 minutes and then it was filtered by 0.2 μm disposable syringe filter.

[4] = cited from earlier work
[5] = rats; cited from earlier work
[6] = cited from earlier work; remark: listed apart in the source
[7] = intravenous dose of 14C-labeled Candesartan

- AUC15-120 min [1]: 120.8 µg·min/mL
- AUC15-360 min [1]: 420.2 µg·min/mL
- maximal serum Candesartan concentration (Cmax) [1]: 1612 ± 248 ng/mL
- tmax [1]: 2 h
- Candesartan Cilexetil content in distilled water by UV-VIS [3]: cannot be detected
Compound: CCOc1nc2cccc(C(=O)OC(C)OC(=O)OC3CCCCC3)c2n1Cc1ccc(-c2ccccc2-c2nnn[nH]2)cc1 (racemic) [Candesartan Cilexetil, (±)-1-Hydroxyethyl 2-ethoxy-1-[p-(o-1H-tetrazol-5-ylphenyl)benzyl]-7-benzimidazolecarboxylate, cyclohexyl carbonate (ester)]
- rate of withdrawals due to adverse events [2]: 3.3%
- solubility in methanol ([4]; methanol): sparingly soluble
- solubility in water ([4]; water): practically insoluble

Compound: CCOc1nc2cccc(C(=O)O)c2n1Cc1ccc(-c2ccccc2-c2nnn[nH]2)cc1 [Candesartan]
- crossing of the blood-brain barrier [5]: crosses the blood-brain barrier poorly, if at all
- passage across the placental barrier [5]: passes across the placental barrier and is distributed in the fetus
- dose excreted unchanged in urine ([6]; administered orally): about 26%
- effect of food with a high fat content on bioavailability ([6]; after Candesartan Cilexetil administration): does not affect
- absolute bioavailability of Candesartan ([6]; following administration of Candesartan Cilexetil): 15%
- bound to plasma proteins ([6]; in vivo): > 99%
- elimination half-life ([6]; in vivo): approximately 9 hours
- penetration of red blood cells ([6]; in vivo): does not penetrate red blood cells
- renal clearance ([6]; in vivo): 0.19 mL/min/kg
- total plasma clearance ([6]; in vivo): 0.37 mL/min/kg
- volume of distribution ([6]; in vivo): 0.13 L/kg
- radioactivity recovered in feces [6, 7]: approximately 36%
- radioactivity recovered in urine [6, 7]: approximately 59%
- accumulation in serum ([6]; repeated once-daily dosing): do not accumulate
